The values below come from ChEMBL document CHEMBL4219157, “Alkylated/aminated nitroimidazoles and nitroimidazole-7-chloroquinoline conjugates: Synthesis and anti-mycobacterial evaluation” (Bioorg Med Chem Lett, 2018).

The test system of data set [1] is Mycobacterium tuberculosis. The data set is described as follows: Antitubercular activity against Mycobacterium tuberculosis mc2 6230 after 7 days by broth microdilution assay. The format is functional. Conditions: mc2 6230, 168 h. Background: Dilution methods test growth across graded concentrations, often in twofold steps.
The subject of a further data set is J774. Kind of data set: Cytotoxicity against mouse J774 cells assessed as decrease in cell viability after 24 hrs by resazurin based assay. Conditions: J774, 24 h. (Alamar Blue is a resazurin reagent that responds to reducing activity.)
The nature of data set [2]: Selectivity index, ratio of IC50 for mouse J774 cells to MIC50 for Mycobacterium tuberculosis mc2 6230. It is filed as toxicity. Conditions: read-out: Selectivity Index.

In brackets after ≈: the same amount, converted by molar mass. Bounds are passed on as bounds.

In data set [1], `Clc1ccc2c(N3CCNCC3)ccnc2c1` gave an MIC50 of 92 µg/mL (≈ 371 µM).

Regarding `Cc1ncc([N+](=O)[O-])n1CCCN1CCN(c2ccnc3cc(Cl)ccc23)CC1`, the IC50 with J774 was more than 100 µg/mL. This compound also gave an MIC50 in data set [1] of 3.8 µg/mL (≈ 9.16 µM). In addition, the selectivity ratio in data set [2] was more than 26.3.

On to `Cc1ncc([N+](=O)[O-])n1CCCN1CCCC1`, for which the IC50 in the data set on J774 is more than 100 µg/mL. For the same compound, the MIC50 in data set [1] was 19.3 µg/mL (≈ 81 µM). Also, in data set [2], the selectivity ratio is more than 5.2.

Take `Cc1ncc([N+](=O)[O-])n1CCCCCN1CCN(c2ccnc3cc(Cl)ccc23)CC1`: the IC50 with J774 turned out to be 28.9 µg/mL (≈ 65.2 µM). The MIC50 in data set [1] came to 5.2 µg/mL (≈ 11.7 µM). Further, the selectivity ratio in data set [2] is 5.6.

As to `Cc1ncc([N+](=O)[O-])n1CCCCN1CCCCC1`, the IC50 with J774 is more than 100 µg/mL. This compound yielded an MIC50 in data set [1] of 19.3 µg/mL (≈ 72.5 µM). The selectivity ratio in data set [2] was more than 5.2.

`Cc1ncc([N+](=O)[O-])n1CCCCCN1CCCC1`: the IC50 in the data set on J774 was more than 100 µg/mL. The compound also returned an MIC50 in data set [1] of 12.3 µg/mL (≈ 46.2 µM). Also, the selectivity ratio in data set [2] was more than 8.1.

In the case of `Cc1ncc([N+](=O)[O-])n1CCCCN1CCCC1`, the IC50 in the data set with J774 was more than 100 µg/mL. Besides, the MIC50 in data set [1] was determined as 12.6 µg/mL (≈ 49.9 µM). Also, in data set [2], the selectivity ratio is more than 8.

Consider `Cc1ncc([N+](=O)[O-])n1CCCCCN1CCCCC1`, for which the IC50 in the data set on J774 was more than 100 µg/mL. This compound also registered an MIC50 in data set [1] of 49 µg/mL (≈ 175 µM). Moreover, the selectivity ratio in data set [2] is more than 2.

Turning to `Cc1ncc([N+](=O)[O-])n1CCCCCCN1CCN(c2ccnc3cc(Cl)ccc23)CC1`, in the data set on J774, the IC50 was less than 0.8 µg/mL. This compound also had an MIC50 in data set [1] of 1.2 µg/mL (≈ 2.63 µM). The selectivity ratio in data set [2] was less than 0.66.

Consider `Cc1ncc([N+](=O)[O-])n1CCCN1CCCCC1`, for which the IC50 in the data set with J774 is more than 100 µg/mL. Besides, the MIC50 in data set [1] was more than 100 µg/mL.

`Cc1ncc([N+](=O)[O-])n1CCCCN1CCOCC1`: in the data set on J774, the IC50 is more than 100 µg/mL. In data set [1], this compound yielded an MIC50 of 23.1 µg/mL (≈ 86.1 µM). The selectivity ratio in data set [2] was more than 4.3.

`Cc1ncc([N+](=O)[O-])n1CCCCCCBr`: the IC50 in the data set on J774 stood at 69.9 µg/mL (≈ 241 µM). The same compound yielded an MIC50 in data set [1] of 4.9 µg/mL (≈ 16.9 µM). The selectivity ratio in data set [2] is 14.1.

As for `Cc1ncc([N+](=O)[O-])n1CCCCBr`, the IC50 with J774 was found to be 61 µg/mL (≈ 233 µM). In data set [1], this compound registered an MIC50 of 17.7 µg/mL (≈ 67.5 µM). For the same compound, the selectivity ratio in data set [2] amounted to 3.4.

In the case of `Cc1ncc([N+](=O)[O-])n1CCCCCN1CCOCC1`, the IC50 with J774 was more than 100 µg/mL. Moreover, the MIC50 in data set [1] was more than 100 µg/mL.

Consider `Cc1ncc([N+](=O)[O-])n1CCCN1CCOCC1`, for which the IC50 in the data set with J774 was more than 100 µg/mL. The MIC50 in data set [1] came out at 18 µg/mL (≈ 70.8 µM). Moreover, in data set [2], the selectivity ratio was more than 5.5.

`Cc1ncc([N+](=O)[O-])n1CCCBr`: the concentration for half-maximal inhibition (IC50) in the data set with J774 was 54.8 µg/mL (≈ 221 µM). For the same compound, in data set [1], the MIC50 came out at 5.3 µg/mL (≈ 21.4 µM). Besides, the selectivity ratio in data set [2] is 10.3.

For `Cc1ncc([N+](=O)[O-])n1CCCCCBr`, in the data set on J774, the IC50 came out at 83 µg/mL (≈ 301 µM). Also, the MIC50 in data set [1] was 13.3 µg/mL (≈ 48.2 µM). Further, the selectivity ratio in data set [2] was found to be 6.2.

As to `Cc1ncc([N+](=O)[O-])n1CCCCN1CCN(c2ccnc3cc(Cl)ccc23)CC1`, the IC50 in the data set with J774 is more than 100 µg/mL. Also, the MIC50 in data set [1] was 2.2 µg/mL (≈ 5.13 µM). Further, the selectivity ratio in data set [2] was more than 45.3.

With `NNC(=O)c1ccncc1` [ISONIAZID], the MIC50 in data set [1] is 0.019 µg/mL (≈ 0.139 µM).

A word on the MIC50: it is an inhibitory concentration at the 50% level, which refers to growth in some studies and to a panel of isolates in others. Read a high MIC50 as lower susceptibility. In general, IC50 refers to the midpoint of a concentration-inhibition curve.
